From PMC7083851, “Extended pharmacodynamic responses observed upon PROTAC-mediated degradation of RIPK2” (Communications Biology, 2020)
“And” between values parts separate entries of the source, which are not always exact repeats. Equal values may be shown once.

Experiments:
[1] = molecular target: T1, RIPK2 (Homo sapiens, UniProt O43353); assay: RIPK2 degradation in THP-1 cells, capillary-based immunoassay, 18 h; type: cell-based; set-up: endogenous in cells; host or cells: THP-1 (ATCC TIB-202); settings: for RIPK2 level relative to DMSO control, mean / RIPK2 level relative to DMSO control, replicate: THP-1, 18 h; for pDC50 (log half-maximal degradation concentration) of RIPK2: THP-1 cells, 18 h, n = 3
Description: The compounds were incubated with THP-1 cells for 18 h after which RIPK2 levels were determined using a capillary-based immunoassay (n = 3). All three PROTACs potently degraded RIPK2 in a concentration dependent manner (Fig. 1). […]. This discrepancy between the in vitro RIPK2 degradation and binding potency provides possible evidence for a catalytic mechanism of action of this compound.
(§1) Before treatment with compound or vehicle, THP1 cells, human and rat PBMCs were counted using Vi-Cell cell counter (Invitrogen) and adjusted to a final cell density of […] using complete growth medium. Cells or whole blood were treated with vehicle (0.1% DMSO) or fixed concentrations of compound up to 1 μM in half log unit increments and incubated for the time period indicated in the figure.
(§2) Simple Western immunoassay: Cell lysates were mixed with 5× concentrated master mix (Protein Simple) and denatured at 95 °C on a heat block for 5 min together with the provided ladder (Protein Simple). Antibodies were diluted in the provided buffer as following: anti-RIPK2 (1:10 or 1:50), anti-cIAP1(1:10), anti-cIAP2 (1:10), anti-XIAP (1:10), mouse anti-β-actin (Abcam - 1:1000), rabbit anti-β-actin (Abcam - 1:50) and anti-vinculin (1:100). All reagents (blocking buffer, primary and secondary antibodies, streptavadin, luminol/peroxide, separation matrix, stacking matrix and water) were added to the Protein Simple plate containing the ladder and lysates and the plate was placed in a Protein Simple Western instrument and the Simple Western default size assay protocol was used. All samples were analyzed using the associated Compass software 3.1.7. The area under the peak values obtained for RIPK2, cIAP1, cIAP2 or XIAP were normalized relative to the control protein values.
(§3) In vitro experimental data were analyzed using a 4-parameter logistic equation in GraphPad Prism 5.0.4. to generate an estimate of the half-maximal concentration and maximal degradation, DC50 and Dmax value respectively, for concentration-degradation relationships. Cytokine levels were analyzed in a similar manner to yield IC50 and Imax values. […] Where analysis to a sigmoidal relationship was not possible, the data points are shown as mean ± s.e.m.

[2] = molecular target: T1, RIPK2; assay: RIPK2 degradation in human PBMCs (immunoassay); type: cell-based; set-up: endogenous in cells; host or cells: primary human PBMCs from leukodepletion filters (NHSBT)
Description: (§4) PBMCs were isolated from leukodepletion filter from platelet aphaeresis supplied by National Health System Blood and Transplant—NHSBT Apheresed at NHBST.
as §1
(§5) Where the assessment of cytokines was performed, L18-MDP was added to the cell culture media (1 μg/ml) or to the rat blood samples (100 ng/ml) and samples were incubated for up to 4 h. […] Samples were them spun down at 1000 g and the cell culture supernatant, plasma or serum were collected for cytokines assessment, while cell pellets were used for RIPK2 and/or cIAP1, cIAP2, and XIAP levels analysis via immunoblotting.
as §2, with “All samples were analyzed using the associated Compass software 3.1.7.” left out
as §3

[3] = molecular target: T1, RIPK2; assay: RIPK2 fluorescence polarisation binding assay
[4] = system: L18-MDP-induced TNFα release; assay: L18-MDP-induced cytokine release (TNFα, IL1β, IL-6, IL-8, IL-10) in human PBMCs; type: cell-based; settings: human PBMCs
Description: as §4, §1, §5
(§6) Cytokine measurement assay: Cytokine levels were measured in rat plasma or rat PBMCs cell culture supernatants using rat V-Plex TNFα, in human plasma or human PBMCs cell culture supernatants with either TNFα tissue culture or 7-plex kit. Rat serum and tissues samples from the in vivo L18-MDP acute inflammation model were analyzed using the rat TNFα, Il-6 and IL-8 U-Plex kits. All kits provided by Meso Scale Discovery (MSD). Levels of cytokines spontaneously released from human colon biopsies cell culture supernatants were measured using Human IL-1 beta/IL-1F2 DuoSet ELISA (Bio-techne), Human IL-6 ELISA (Immunotools) and Human TNF-alpha DuoSet ELISA (Bio-techne). All samples were processed accordingly to the manufacturer’s instructions. The MSD plates were analyzed using the MSD sector imager 6000 plate reader and cytokines concentration (pg/ml) was obtained by using the MSD DISCOVERY WORKBENCH software version 4.0.12.1
as §3

[5] = system: spontaneous IL-1β, IL-6, and TNFα release; assay: Spontaneous cytokine release (IL-1β, IL-6, TNFα) from ulcerative colitis patient intestinal biopsies; type: cell-based, human; settings: prednisolone 1uM; individual biopsies; fig 4f
Description: (§7) Colonic biopsies or tissues were obtained during endoscopy or via surgical resection from Crohn’s Disease (CD) or Ulcerative Colitis (UC) patients (St Bartholomew’s Hospital, London). All patients gave informed written consent. For surgical specimens, the mucosa was dissected away from the submucosa and cut into pieces of ~10–20 mg. […] The supernatants were collected for cytokine measurement as detailed in cytokines assay section while tissues were used to determine RIPK2 levels.
as §6

[6] = system: spontaneous IL-1β, IL-6, and TNFα release; assay: Spontaneous cytokine release (IL-1β, IL-6, TNFα) from Crohn's disease patient intestinal biopsies; type: cell-based, human; settings: prednisolone 1uM; individual biopsies; fig 4e
Description: as §7, §6

T1 sequence (O43353 whole entry): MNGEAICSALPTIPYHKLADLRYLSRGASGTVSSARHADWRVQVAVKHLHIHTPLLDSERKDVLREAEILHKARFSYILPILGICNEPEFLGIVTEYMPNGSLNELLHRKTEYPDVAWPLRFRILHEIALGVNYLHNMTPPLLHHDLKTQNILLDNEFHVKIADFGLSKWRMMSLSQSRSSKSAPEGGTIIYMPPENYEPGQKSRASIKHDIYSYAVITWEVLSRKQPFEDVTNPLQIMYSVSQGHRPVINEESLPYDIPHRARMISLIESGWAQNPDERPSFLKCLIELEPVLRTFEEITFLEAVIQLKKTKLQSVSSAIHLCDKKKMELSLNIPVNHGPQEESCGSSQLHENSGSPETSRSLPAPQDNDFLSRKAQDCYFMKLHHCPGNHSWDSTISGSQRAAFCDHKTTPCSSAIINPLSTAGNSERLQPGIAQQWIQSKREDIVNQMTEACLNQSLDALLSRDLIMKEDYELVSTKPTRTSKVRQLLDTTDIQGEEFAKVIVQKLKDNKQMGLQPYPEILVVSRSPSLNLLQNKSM

Compound | RIPK2 level relative to DMSO control, mean ([1]; concentration 5.64503e-11 (uM)) | RIPK2 level relative to DMSO control, replicate ([1]; concentration 5.64503e-11 (uM)) | RIPK2 level relative to DMSO control, mean ([1]; concentration 1.69351e-10 (uM)) | RIPK2 level relative to DMSO control, replicate ([1]; concentration 1.69351e-10 (uM)) | RIPK2 level relative to DMSO control, mean ([1]; concentration 5.08053e-10 (uM)) | RIPK2 level relative to DMSO control, replicate ([1]; concentration 5.08053e-10 (uM)) | RIPK2 level relative to DMSO control, mean ([1]; concentration 1.52416e-9 (uM)) | RIPK2 level relative to DMSO control, replicate ([1]; concentration 1.52416e-9 (uM)) | RIPK2 level relative to DMSO control, mean ([1]; concentration 4.57247e-9 (uM)) | RIPK2 level relative to DMSO control, replicate ([1]; concentration 4.57247e-9 (uM)) | RIPK2 level relative to DMSO control, mean ([1]; concentration 1.37174e-8 (uM)) | RIPK2 level relative to DMSO control, replicate ([1]; concentration 1.37174e-8 (uM)) | RIPK2 level relative to DMSO control, mean ([1]; concentration 4.11523e-8 (uM)) | RIPK2 level relative to DMSO control, replicate ([1]; concentration 4.11523e-8 (uM)) | RIPK2 level relative to DMSO control, mean ([1]; concentration 1.23457e-7 (uM)) | RIPK2 level relative to DMSO control, replicate ([1]; concentration 1.23457e-7 (uM)) | RIPK2 level relative to DMSO control, mean ([1]; concentration 3.7037e-7 (uM)) | RIPK2 level relative to DMSO control, replicate ([1]; concentration 3.7037e-7 (uM)) | RIPK2 level relative to DMSO control, mean ([1]; concentration 1.11111e-6 (uM)) | RIPK2 level relative to DMSO control, replicate ([1]; concentration 1.11111e-6 (uM)) | other results
Cc1ncsc1-c1ccc(CNC(=O)[C@@H]2C[C@@H](O)CN2C(=O)[C@@H](NC(=O)COCCOCCOCCOCCOc2cc3nccc(Nc4ccc5scnc5c4)c3cc2S(=O)(=O)C(C)(C)C)C(C)(C)C)cc1 [PROTAC 1] | 137.19% | 137.14% and 131.67% and 142.75% | 152.51% | 155.57% and 149.03% and 152.92% | 122.01% | 106.27% and 143.87% and 115.89% | 89.18% | 63.87% and 96.25% and 107.40% | 27.32% | 23.09% and 35.58% and 23.29% | 9.76% | 12.67% and 5.77% and 10.83% | 6.61% | 11.20% and 7.66% and 0.96% | 5.05% | 9.24% and 2.76% and 3.15% | 6.31% | 7.12% and 6.30% and 5.51% | 33.78% | 1.60% and 12.61% and 87.13% | RIPK2 level relative to DMSO control, mean ([1]; concentration 3.33333e-6 (uM)): 14.14%; RIPK2 level relative to DMSO control, replicate ([1]; concentration 3.33333e-6 (uM)): 1.88% and 3.30% and 37.22%; RIPK2 level relative to DMSO control, mean ([1]; concentration 1e-5 (uM)): 11.28%; RIPK2 level relative to DMSO control, replicate ([1]; concentration 1e-5 (uM)): 13.04% and 4.22% and 16.59%; pDC50 (log half-maximal degradation concentration) of RIPK2 [1]: 8.7 ± 0.1
CC(C)(C)S(=O)(=O)c1cc2c(Nc3ccc4scnc4c3)ccnc2cc1OCCOCCOCCOCCOCC(=O)Nc1cccc2c1CN([C@H]1CCC(=O)NC1=O)C2=O [PROTAC 3] | 146.59% | 194.68% and 98.50% | 122.55% | 71.16% and 101.63% and 194.85% | 97.79% | 93.88% and 82.74% and 116.75% | 112.46% | 101.29% and 70.25% and 165.85% | 60.56% | 92.51% and 28.00% and 61.18% | 42.80% | 81.76% and 12.71% and 33.93% | 29.73% | 51.94% and 1.28% and 35.96% | 21.93% | 35.50% and 5.30% and 24.99% | 20.89% | 34.52% and 2.06% and 26.09% | 14.85% | 24.75% and 3.56% and 16.23% | RIPK2 level relative to DMSO control, mean ([1]; concentration 3.33333e-6 (uM)): 15.39%; RIPK2 level relative to DMSO control, replicate ([1]; concentration 3.33333e-6 (uM)): 20.92% and 6.74% and 18.51%; RIPK2 level relative to DMSO control, mean ([1]; concentration 1e-5 (uM)): 22.12%; RIPK2 level relative to DMSO control, replicate ([1]; concentration 1e-5 (uM)): 28.44% and 5.50% and 32.40%; pDC50 (log half-maximal degradation concentration) of RIPK2 [1]: 8.6 ± 0.4
CN[C@H](C)C(=O)N[C@@H](C(=O)N1CCC[C@@H]1c1nc(C(=O)c2ccc(F)cc2)cs1)C1CCN(C(=O)c2cnc(N3CCN(CCOc4cc5ncnc(Nc6n[nH]c(C)c6C)c5cc4S(=O)(=O)C(C)(C)C)CC3)nc2)CC1 [PROTAC 5] |  |  |  |  |  |  |  |  |  |  |  |  |  |  |  |  |  |  |  |  | RIPK2 degradation in human PBMCs, in words [2]: does not degrade RIPK2; hPBMC pDC50 ± SEM, 24 h (n = 3) ([2]; RIPK2 degradation, 24 h): Non-degrader; RIPK2 FP pIC50 ± SEM (n) [3]: 6.7 ± 0.05 (12); hPBMC MDP pIC50 ± SEM, 6 h (n = 3) ([4]; L18-MDP-induced TNFα release, 6 h): 6.5 ± 0.5; fold reduced potency in L18-MDP-induced TNFα release versus the active PROTAC ([4]; control PROTAC vs its enantiomer): more than 10 fold
C[C@]12C=CC(=O)C=C1CC[C@@H]1[C@@H]2[C@@H](O)C[C@@]2(C)[C@H]1CC[C@]2(O)C(=O)CO [prednisolone, reference compound] |  |  |  |  |  |  |  |  |  |  |  |  |  |  |  |  |  |  |  |  | IL-1b (Ctrl=DMSO = 100) [5]: 65 and 41 and 10 and 46 and 7 (2×) and 49 and 30 and 14 and 33 and 36 and 5 and 17 and 39 and 19 (2×) and 13 and 34 and 28; IL-6 (Ctrl=DMSO = 100) [5]: 58 and 14 and 16 and 25 and 18 and 9 and 12 and 5 (2×) and 74 and 26 and 34 and 28 and 19 and 3 and 21 and 17 and 48 and 24; TNFa (Ctrl=DMSO = 100) [5]: 36 and 19 and 40 and 48 and 18 (2×) and 56 and 8 and 33 and 55 and 69 and 27 and 38 (2×) and 20 and 25 and 35 and 14 and 39; IL-1b (Ctrl=DMSO = 100) [6]: 18 and 20 and 82 and 15 and 48 and 13 and 5 (2×) and 35 and 37 and 12 and 6 and 49 and 17; IL-6 (Ctrl=DMSO = 100) [6]: 26 (2×) and 27 and 10 and 1 and 8 and 46 and 63 and 31 and 7 and 42 and 40 and 90 and 50 and 9; TNFa (Ctrl=DMSO = 100) [6]: 29 and 15 and 42 and 28 and 19 and 0 and 13 and 33 and 46 (2×) and 27 and 26 and 38 and 23 and 66
